Results reported in ChEMBL document CHEMBL1201862, “PubChem BioAssay data set” (2004).
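Values below derive from 48-hour exposures of cells grown in 96-well plates, with endpoints linearly interpolated between the two concentrations bracketing the appropriate inhibition level. At the GI50, growth is halved.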 The source made the active and inactive calls. No stated cut-off is given here; in the data, active = GI50 up to about 1.1 µM and inactive = higher.

What was measured:
Assay in all cases: DTP human tumour cell line panel, 48 h
786-0 = tested on: 786-0
A549 = tested on: A549
ACHN = tested on: ACHN
CAKI-1 = tested on: CAKI-1
CCRF-CEM = tested on: CCRF-CEM
COLO 205 = tested on: COLO 205
DLD-1 = tested on: DLD-1
DMS-114 = tested on: DMS-114
DMS-273 = tested on: DMS-273
HCT-116 = tested on: HCT-116
HCT-15 = tested on: HCT-15
HL-60 = tested on: HL-60
HOP-18 = tested on: HOP-18
HOP-62 = tested on: HOP-62
HOP-92 = tested on: HOP-92
HT-29 = tested on: HT-29
IGROV-1 = tested on: IGROV-1
K562 = tested on: K562
KM12 = tested on: KM12
LOX IMVI = tested on: LOX IMVI
LXFL 529 = tested on: LXFL 529
M14 = tested on: M14
M19-MEL = tested on: M19-MEL
MOLT-4 = tested on: MOLT-4
Malme-3M = tested on: Malme-3M
NCI-H226 = tested on: NCI-H226
NCI-H23 = tested on: NCI-H23
NCI-H460 = tested on: NCI-H460
NCI-H522 = tested on: NCI-H522
OVCAR-4 = tested on: OVCAR-4
OVCAR-5 = tested on: OVCAR-5
OVCAR-8 = tested on: OVCAR-8
RPMI-8226 = tested on: RPMI-8226
RXF 393 = tested on: RXF 393
SF-268 = tested on: SF-268
SF-295 = tested on: SF-295
SF-539 = tested on: SF-539
SK-MEL-28 = tested on: SK-MEL-28
SK-MEL-2 = tested on: SK-MEL-2
SK-MEL-5 = tested on: SK-MEL-5
SK-OV-3 = tested on: SK-OV-3
SN12C = tested on: SN12C
SNB-75 = tested on: SNB-75
SR = tested on: SR
SW-620 = tested on: SW-620
TK-10 = tested on: TK-10
U-251 = tested on: U-251
UACC-257 = tested on: UACC-257
UACC-62 = tested on: UACC-62
UO-31 = tested on: UO-31
A498 = tested on: A498
HCC 2998 = tested on: HCC 2998
OVCAR-3 = tested on: OVCAR-3
SNB-19 = tested on: SNB-19
EKVX = tested on: EKVX
KM-20L2 = tested on: KM-20L2
SNB-78 = tested on: SNB-78

COc1ccc(C2S/C(=C\c3cc(OC)c(OC)c(OC)c3)C(=O)N2NC(=O)Cc2ccccc2)cc1 (stereo unspecified)
GI50 (786-0): > 100 µM (inactive) | GI50 (A549): > 100 µM (inactive) | GI50 (ACHN): > 100 µM (inactive) | GI50 (CAKI-1): > 100 µM (inactive) | GI50 (CCRF-CEM): > 100 µM (inactive) | GI50 (COLO 205): > 100 µM (inactive) | GI50 (DLD-1): 94.2 µM (inactive) | GI50 (DMS-114): 72.9 µM (inactive) | GI50 (DMS-273): > 100 µM (inactive) | GI50 (HCT-116): 89.9 µM (inactive) | GI50 (HCT-15): > 100 µM | GI50 (HL-60): > 100 µM (inactive) | GI50 (HOP-18): > 100 µM (inactive) | GI50 (HOP-62): > 100 µM (inactive) | GI50 (HOP-92): > 100 µM (inactive) | GI50 (HT-29): > 100 µM (inactive) | GI50 (IGROV-1): > 100 µM (inactive) | GI50 (K562): > 100 µM (inactive) | GI50 (KM12): > 100 µM (inactive) | GI50 (LOX IMVI): > 100 µM (inactive) | GI50 (LXFL 529): 61.9 µM (inactive) | GI50 (M14): > 100 µM (inactive) | GI50 (M19-MEL): > 100 µM (inactive) | GI50 (MOLT-4): 44.3 µM (inactive) | GI50 (Malme-3M): > 100 µM (inactive) | GI50 (NCI-H226): > 100 µM (inactive) | GI50 (NCI-H23): > 100 µM (inactive) | GI50 (NCI-H460): > 100 µM (inactive) | GI50 (NCI-H522): > 100 µM (inactive) | GI50 (OVCAR-4): > 100 µM (inactive) | GI50 (OVCAR-5): > 100 µM (inactive) | GI50 (OVCAR-8): > 100 µM (inactive) | GI50 (RPMI-8226): > 100 µM (inactive) | GI50 (RXF 393): > 100 µM (inactive) | GI50 (SF-268): > 100 µM (inactive) | GI50 (SF-295): > 100 µM (inactive) | GI50 (SF-539): > 100 µM (inactive) | GI50 (SK-MEL-28): > 100 µM (inactive) | GI50 (SK-MEL-2): > 100 µM (inactive) | GI50 (SK-MEL-5): 22.1 µM (inactive) | GI50 (SK-OV-3): > 100 µM (inactive) | GI50 (SN12C): > 100 µM (inactive) | GI50 (SNB-75): 67.9 µM (inactive) | GI50 (SR): > 100 µM (inactive) | GI50 (SW-620): > 100 µM (inactive) | GI50 (TK-10): > 100 µM (inactive) | GI50 (U-251): > 100 µM (inactive) | GI50 (UACC-257): 76.6 µM (inactive) | GI50 (UACC-62): > 100 µM (inactive) | GI50 (UO-31): 48 µM (inactive)

O=C1CC(=O)N(CCc2ccccc2)S(=O)(=O)N1CCc1ccccc1
GI50 (786-0): 17.1 µM (inactive) | GI50 (A498): 16.6 µM (inactive) | GI50 (A549): 24.4 µM (inactive) | GI50 (ACHN): 35.9 µM (inactive) | GI50 (CAKI-1): 22.2 µM (inactive) | GI50 (CCRF-CEM): 17.2 µM (inactive) | GI50 (COLO 205): 22.4 µM (inactive) | GI50 (DLD-1): 43.5 µM (inactive) | GI50 (DMS-114): 21.4 µM (inactive) | GI50 (DMS-273): 22.5 µM (inactive) | GI50 (HCC 2998): 86.9 µM (inactive) | GI50 (HCT-116): 28.7 µM (inactive) | GI50 (HCT-15): 33.2 µM | GI50 (HL-60): 19.1 µM (inactive) | GI50 (HOP-18): 65.2 µM (inactive) | GI50 (HOP-62): 36.2 µM (inactive) | GI50 (HOP-92): 16.6 µM (inactive) | GI50 (HT-29): 23 µM (inactive) | GI50 (IGROV-1): 20.1 µM (inactive) | GI50 (K562): 23.7 µM (inactive) | GI50 (KM12): 16.2 µM (inactive) | GI50 (LOX IMVI): 1.91 µM (inactive) | GI50 (LXFL 529): 19.8 µM (inactive) | GI50 (M14): 40.6 µM (inactive) | GI50 (M19-MEL): 32.4 µM (inactive) | GI50 (MOLT-4): 20.3 µM (inactive) | GI50 (Malme-3M): 26 µM (inactive) | GI50 (NCI-H23): 25 µM (inactive) | GI50 (NCI-H460): 27.7 µM (inactive) | GI50 (NCI-H522): 19.5 µM (inactive) | GI50 (OVCAR-3): 16.9 µM (inactive) | GI50 (OVCAR-4): 19.8 µM (inactive) | GI50 (OVCAR-5): 22.7 µM (inactive) | GI50 (OVCAR-8): > 10 µM (inactive) | GI50 (RPMI-8226): 24.4 µM (inactive) | GI50 (RXF 393): 34.1 µM (inactive) | GI50 (SF-268): 29.1 µM (inactive) | GI50 (SF-295): 16.9 µM (inactive) | GI50 (SF-539): 22.6 µM (inactive) | GI50 (SK-MEL-28): 28.1 µM (inactive) | GI50 (SK-MEL-2): 22.6 µM (inactive) | GI50 (SK-MEL-5): 18.7 µM (inactive) | GI50 (SK-OV-3): 24.3 µM (inactive) | GI50 (SN12C): 33 µM (inactive) | GI50 (SNB-19): 29.2 µM (inactive) | GI50 (SNB-75): 23.1 µM (inactive) | GI50 (SR): 22.7 µM (inactive) | GI50 (SW-620): 31.8 µM (inactive) | GI50 (TK-10): 36.6 µM (inactive) | GI50 (U-251): 16.9 µM (inactive) | GI50 (UACC-62): 25.9 µM (inactive) | GI50 (UO-31): 21.8 µM (inactive)

COc1ccccc1C(N)c1ccccc1 (stereo unspecified)
GI50 (786-0): > 100 µM (inactive) | GI50 (A498): > 100 µM (inactive) | GI50 (A549): > 100 µM (inactive) | GI50 (ACHN): > 100 µM (inactive) | GI50 (CCRF-CEM): > 100 µM (inactive) | GI50 (COLO 205): > 100 µM (inactive) | GI50 (DLD-1): > 100 µM (inactive) | GI50 (DMS-114): > 100 µM (inactive) | GI50 (DMS-273): > 100 µM (inactive) | GI50 (EKVX): > 100 µM (inactive) | GI50 (HCC 2998): > 100 µM (inactive) | GI50 (HCT-116): > 100 µM (inactive) | GI50 (HCT-15): > 100 µM | GI50 (HL-60): > 100 µM (inactive) | GI50 (HOP-18): > 100 µM (inactive) | GI50 (HOP-62): > 100 µM (inactive) | GI50 (HOP-92): 36 µM (inactive) | GI50 (HT-29): > 100 µM (inactive) | GI50 (IGROV-1): > 100 µM (inactive) | GI50 (K562): > 100 µM (inactive) | GI50 (KM-20L2): > 100 µM (inactive) | GI50 (KM12): > 100 µM (inactive) | GI50 (LOX IMVI): > 100 µM (inactive) | GI50 (LXFL 529): > 100 µM (inactive) | GI50 (M14): > 100 µM (inactive) | GI50 (M19-MEL): > 100 µM (inactive) | GI50 (MOLT-4): > 100 µM (inactive) | GI50 (Malme-3M): > 100 µM (inactive) | GI50 (NCI-H226): > 100 µM (inactive) | GI50 (NCI-H23): > 100 µM (inactive) | GI50 (NCI-H460): > 100 µM (inactive) | GI50 (NCI-H522): > 100 µM (inactive) | GI50 (OVCAR-3): > 100 µM (inactive) | GI50 (OVCAR-4): > 100 µM (inactive) | GI50 (OVCAR-5): > 100 µM (inactive) | GI50 (OVCAR-8): > 100 µM (inactive) | GI50 (RPMI-8226): > 100 µM (inactive) | GI50 (RXF 393): > 100 µM (inactive) | GI50 (SF-268): > 100 µM (inactive) | GI50 (SF-295): > 100 µM (inactive) | GI50 (SF-539): > 100 µM (inactive) | GI50 (SK-MEL-28): > 100 µM (inactive) | GI50 (SK-MEL-5): > 100 µM (inactive) | GI50 (SK-OV-3): > 100 µM (inactive) | GI50 (SN12C): > 100 µM (inactive) | GI50 (SNB-19): > 100 µM (inactive) | GI50 (SNB-75): 95.9 µM (inactive) | GI50 (SNB-78): > 100 µM (inactive) | GI50 (SW-620): > 100 µM (inactive) | GI50 (TK-10): > 100 µM (inactive) | GI50 (U-251): > 100 µM (inactive) | GI50 (UACC-257): > 100 µM (inactive) | GI50 (UACC-62): > 100 µM (inactive) | GI50 (UO-31): > 100 µM (inactive)
